Reference: ChEMBL document CHEMBL3352484, “Modified 2,4-diaminopyrimidine-based dihydrofolate reductase inhibitors as potential drug scaffolds against Bacillus anthracis” (Bioorg Med Chem, 2015)
Converted amounts (≈) assume the structure as drawn.

tested on: Bacillus anthracis; test: Antimicrobial activity against Bacillus anthracis assessed as growth inhibition measured as turbidity; assay type: functional

Point of comparison: `CCCC1c2ccccc2C=NN1C(=O)/C=C/c1cc(Cc2cnc(N)nc2N)cc(OCC)c1OCC` (racemic), MIC 4 µg/mL (≈ 7.77 µM). Against it:
- CCCC1c2ccccc2C=NN1C(=O)/C=C/c1cc(C(=O)c2cnc(N)nc2N)cc(OC)c1OC (racemic) — higher, > 128 µg/mL
- COc1cc(C(=O)c2cnc(N)nc2N)cc(/C=C/C(=O)N2N=Cc3ccccc3C2C=C(C)C)c1OC (racemic) — higher, > 128 µg/mL
- CCOc1cc(Cc2cnc(N)nc2N)cc(/C=C/C(=O)N2N=Cc3ccccc3C2C=C(C)C)c1OCC (racemic) — 4-fold lower, 1 µg/mL (≈ 1.9 µM)
- CCCC1c2ccccc2C=NN1C(=O)/C=C/c1cc(Cc2cnc(N)nc2N)cc(OC)c1OCC (racemic) — 2-fold lower, 2 µg/mL (≈ 4 µM)
- CCOc1c(/C=C/C(=O)N2N=Cc3ccccc3C2C=C(C)C)cc(Cc2cnc(N)nc2N)cc1OC (racemic) — 8-fold lower, 0.5 µg/mL (≈ 0.975 µM)
- CCCC1c2ccccc2C=NN1C(=O)/C=C/c1cc(Cc2cnc(N)nc2N)cc(OC)c1OCc1ccccc1 (racemic) — the same, 4 µg/mL (≈ 7.11 µM)
- CCCC1c2ccccc2C=NN1C(=O)/C=C/c1cc(Cc2cnc(N)nc2N)cc2c1OCO2 (racemic) — 8-fold higher, 32 µg/mL (≈ 68 µM)
- CCCOc1cc(Cc2cnc(N)nc2N)cc(/C=C/C(=O)N2N=Cc3ccccc3C2CCC)c1OC (racemic) — the same, 4 µg/mL (≈ 7.77 µM)
- CCCC1c2ccccc2C=NN1C(=O)/C=C/c1cc(Cc2cnc(N)nc2N)cc(OC(=O)c2ccccc2)c1OC (racemic) — the same, 4 µg/mL (≈ 6.94 µM)
- CCCC1c2ccccc2C=NN1C(=O)/C=C/c1cc(Cc2cnc(N)nc2N)cc(OC(=O)c2ccc(OC)cc2)c1OC (racemic) — 2-fold higher, 8 µg/mL (≈ 13.2 µM)
- CCCC1c2ccccc2C=NN1C(=O)/C=C/c1cc(Cc2cnc(N)nc2N)cc(OC(=O)c2ccc([N+](=O)[O-])cc2)c1OC (racemic) — 2-fold higher, 8 µg/mL (≈ 12.9 µM)
- CCCC1c2ccccc2C=NN1C(=O)/C=C/c1cc(Cc2cnc(N)nc2N)cc(OC(=O)c2ccc(OC(F)(F)F)cc2)c1OC (racemic) — 2-fold higher, 8 µg/mL (≈ 12.1 µM)
- CCCC1c2ccccc2C=NN1C(=O)/C=C/c1cc(Cc2cnc(N)nc2N)cc(OCc2ccc(F)cc2)c1OC (racemic) — 2-fold higher, 8 µg/mL (≈ 13.8 µM)
- CCCC1c2ccccc2C=NN1C(=O)/C=C/c1cc(Cc2cnc(N)nc2N)cc(OCc2ccc(C(F)(F)F)cc2)c1OC (racemic) — 2-fold higher, 8 µg/mL (≈ 12.7 µM)
- COc1cc(Cc2cnc(N)nc2N)cc(OC)c1OC [TRIMETHOPRIM] — higher, > 2050 µg/mL
